The numbers were not newly measured in patent US4374147A, “13-Oxo-monic acid esters useful as antibacterial and antimycoplasmal agents” (Beecham Group Limited, priority 1980, dated 1983), which cites them from elsewhere.

The test system of the series is Gram-positive and Gram-negative organisms. Conditions: disclosed in earlier patents; cited from earlier work.

SMILES strings stand for the structures.

On to `CC(=CC(=O)OCCCCCCCCC(=O)O)CC1OCC(CC2OC2C(C)C(C)O)C(O)C1O` (stereo not shown) [Pseudomonic acid], for which the antibacterial activity result is reported as “having antibacterial activity”.
